In patent publication US20180099931A1 (AbbVie S.à.r.l., priority 2016, published 2018):
Where two headings read alike, the source gives them in different places.

Target: T1, F508delCFTR (Homo sapiens, UniProt P13569, DEL508-508)
T1 construct: expressed in transfected cells; host or cells: CFBE41o- human lung-derived epithelial cells (CFBE4lo-F508delCFTR-HRP), doxycycline-inducible
Assay: Cell Surface Expression-Horse Radish Peroxidase (CSE-HRP) Assay;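 as to Maximum % activity (with co-corrector): co-corrector and positive control are both the same reference corrector at 2 µM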;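 as to Maximum % activity (without co-corrector): percent of the 2 µM on-plate positive control corrector response above DMSO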
Format: cell-based
Settings: for Emax / Maximum % activity (with co-corrector): maximum at any tested concentration, normalized to on-plate positive control; for Emax: read-out: Maximum % activity (without co-corrector)

[1] = test compound without co-corrector
[2] = test compound without co-corrector, read-out: EC50 (without co-corrector)
[3] = with co-corrector (2 μM of 3-[(2R,4R)-4-({[1-(2,2-difluoro-1,3-benzodioxol-5-yl)cyclopropyl]carbonyl}amino)-7-methoxy-3,4-dihydro-2H-chromen-2-yl]benzoic acid)
[4] = with co-corrector (2 μM of 3-[(2R,4R)-4-({[1-(2,2-difluoro-1,3-benzodioxol-5-yl)cyclopropyl]carbonyl}amino)-7-methoxy-3,4-dihydro-2H-chromen-2-yl]benzoic acid), read-out: EC50 (with co-corrector)
[5] = CSE-HRP, test compound without co-corrector, read-out: EC50 (without co-corrector)
[6] = CSE-HRP, with co-corrector (2 μM of 3-[(2R,4R)-4-({[1-(2,2-difluoro-1,3-benzodioxol-5-yl)cyclopropyl]carbonyl}amino)-7-methoxy-3,4-dihydro-2H-chromen-2-yl]benzoic acid), read-out: EC50 (with co-corrector)
[7] = CSE-HRP, with co-corrector (2 μM)

T1 sequence (P13569 with tags, fused parts or gaps DEL508-508): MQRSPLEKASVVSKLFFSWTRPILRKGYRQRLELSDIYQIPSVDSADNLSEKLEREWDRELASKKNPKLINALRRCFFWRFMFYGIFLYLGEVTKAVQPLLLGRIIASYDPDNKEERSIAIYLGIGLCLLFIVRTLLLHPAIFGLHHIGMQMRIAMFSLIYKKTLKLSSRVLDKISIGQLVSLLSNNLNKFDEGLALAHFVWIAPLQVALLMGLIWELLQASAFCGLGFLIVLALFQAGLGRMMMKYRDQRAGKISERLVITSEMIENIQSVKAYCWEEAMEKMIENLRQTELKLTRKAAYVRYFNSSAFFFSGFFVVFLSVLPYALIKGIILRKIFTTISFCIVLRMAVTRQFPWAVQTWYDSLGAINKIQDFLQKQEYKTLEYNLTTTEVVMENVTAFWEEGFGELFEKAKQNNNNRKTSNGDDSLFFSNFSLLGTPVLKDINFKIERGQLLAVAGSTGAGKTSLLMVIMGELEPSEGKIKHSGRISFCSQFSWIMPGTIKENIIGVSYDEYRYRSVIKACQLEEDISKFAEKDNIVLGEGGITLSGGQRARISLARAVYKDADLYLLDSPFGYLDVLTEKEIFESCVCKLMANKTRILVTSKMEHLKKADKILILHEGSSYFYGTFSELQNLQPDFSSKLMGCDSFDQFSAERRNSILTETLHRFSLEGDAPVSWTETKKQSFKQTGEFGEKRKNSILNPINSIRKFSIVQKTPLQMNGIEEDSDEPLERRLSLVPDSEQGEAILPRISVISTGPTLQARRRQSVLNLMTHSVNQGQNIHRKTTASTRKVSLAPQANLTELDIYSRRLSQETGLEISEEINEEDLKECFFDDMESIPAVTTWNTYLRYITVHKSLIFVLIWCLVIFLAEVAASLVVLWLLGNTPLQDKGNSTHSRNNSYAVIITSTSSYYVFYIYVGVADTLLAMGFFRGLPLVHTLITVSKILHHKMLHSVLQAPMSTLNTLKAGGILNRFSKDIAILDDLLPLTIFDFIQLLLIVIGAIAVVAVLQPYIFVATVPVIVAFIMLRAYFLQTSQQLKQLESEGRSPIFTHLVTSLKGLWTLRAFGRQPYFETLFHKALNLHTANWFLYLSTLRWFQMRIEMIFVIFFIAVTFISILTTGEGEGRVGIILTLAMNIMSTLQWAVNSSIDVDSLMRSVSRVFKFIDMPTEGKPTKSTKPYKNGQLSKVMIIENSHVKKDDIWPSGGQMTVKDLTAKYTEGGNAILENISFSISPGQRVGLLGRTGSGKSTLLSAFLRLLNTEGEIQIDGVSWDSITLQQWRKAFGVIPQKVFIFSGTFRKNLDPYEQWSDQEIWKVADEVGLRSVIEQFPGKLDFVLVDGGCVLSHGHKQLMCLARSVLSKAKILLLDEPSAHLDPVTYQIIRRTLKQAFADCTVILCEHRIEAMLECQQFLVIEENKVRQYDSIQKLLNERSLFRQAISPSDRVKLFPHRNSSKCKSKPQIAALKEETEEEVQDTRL

| Structure (SMILES) | Emax [1] [%] | EC50 [2] [µM] | Maximum % activity (with co-corrector) [3] | EC50 [4] [µM] | Maximum % activity (with co-corrector) (with co-corrector (2 μM)) | Emax (without co-corrector) [%] | EC50 [5] [µM] | EC50 [6] [µM] | Maximum % activity (with co-corrector) [7] | Emax (CSE-HRP, without co-corrector) [%] |
| --- | --- | --- | --- | --- | --- | --- | --- | --- | --- | --- |
| COc1ccc(C(F)(F)F)cc1CN[C@@H]1[C@@H](C(C)(C)C)[C@H](C(=O)O)N(C(=O)OC(C)C)[C@@H]1c1cccnc1N(C)C (racemic) [Example I-29] |  | 1 to 10 |  | 1 to 10 | +++ (≥350) | > 200 |  |  |  |  |
| COc1ccc(C(C)(C)C)cc1CN[C@H]1[C@H](C(C)(C)C)[C@@H](C(=O)O)N(C(=O)OC(C)C)[C@H]1c1cccnc1N1CCC1 [Example 99, (2S,3S,4S,5S)-5-[2-(azetidin-1-yl)pyridin-3-yl]-3-tert-butyl-4-{[(5-tert-butyl-2-methoxyphenyl)methyl]amino}-1-{[(propan-2-yl)oxy]carbonyl}pyrrolidine-2-carboxylic acid] |  | 1 to 10 |  | 1 to 10 | +++ (≥350) | > 200 |  |  |  |  |
| COc1ncc(C2CC2)cc1CN[C@H]1[C@H](C(C)(C)C)[C@@H](C(=O)O)N(C(=O)C2CCCCC2)[C@H]1c1ccccc1C [Example 105, (2S,3S,4S,5S)-3-tert-butyl-1-(cyclohexanecarbonyl)-4-{[(5-cyclopropyl-2-methoxypyridin-3-yl)methyl]amino}-5-(2-methylphenyl)pyrrolidine-2-carboxylic acid] |  | 1 to 10 |  | < 1 | +++ (≥350) | > 200 |  |  |  |  |
| COc1ccc(C(C)(C)C)cc1CN[C@H]1[C@H](C(C)(C)C)[C@@H](C(=O)O)N(C(=O)c2cc(-c3ccccc3)n(C)n2)[C@H]1c1ccccc1 [II-227] |  |  |  |  |  |  | 1 to 10 | < 1 | +++ (≥350) | > 200 |
| COc1cccc(S(=O)(=O)N2[C@H](C(=O)O)[C@@H](C(C)(C)C)[C@H](NCc3cc(C4CCC4)cnc3OC)[C@@H]2c2ccccc2C(C)C)n1 [Example I-303] |  |  |  |  |  |  | 1 to 10 | 1 to 10 | +++ (≥350) | < 100 |
| COc1ccc(C(C)(C)C)cc1CN[C@H]1[C@H](C(C)(C)C)[C@@H](C(=O)O)N(C(=O)c2cccnc2C)[C@H]1c1ccccc1 [II-198] |  |  |  |  |  |  | 1 to 10 | 1 to 10 | ++ (≥150 and <350) | < 100 |
| COc1cc(C(F)(F)F)ccc1CN[C@@H]1[C@@H](C(C)(C)C)[C@H](C(=O)O)N(C(=O)C2CCCCO2)[C@@H]1c1ccccc1N(C)C (mixture of isomers) [Example I-25] |  | 1 to 10 |  | < 1 | +++ (≥350) | > 200 |  |  |  |  |
| COc1ccc(Cl)cc1CN[C@@H]1[C@@H](C(C)(C)C)[C@H](C(=O)O)N(C(=O)C2CCOC(C)(C)C2)[C@@H]1c1ccccc1N(C)C (mixture of isomers) [II-25] |  |  |  |  |  |  | 1 to 10 | 1 to 10 | +++ (≥350) | > 200 |
| COc1cc(C(F)(F)F)ccc1CN[C@H]1[C@H](C(C)(C)C)[C@@H](C(=O)O)N(C(=O)[C@@H]2CCCCO2)[C@H]1c1ccccc1 [Example 10, (2S,3S,4S,5S)-3-tert-butyl-4-({[2-methoxy-4-(trifluoromethyl)phenyl]methyl}amino)-1-[(2S)-oxane-2-carbonyl]-5-phenylpyrrolidine-2-carboxylic acid] |  | 1 to 10 |  | 1 to 10 | +++ (≥350) | > 200 |  |  |  |  |
| CC(C)(C)[C@H]1[C@H](NCc2coc3ccccc23)[C@H](c2ccccc2)N(C(=O)C2CCCCC2)[C@@H]1C(=O)O [II-100] |  |  |  |  |  |  | 1 to 10 | 1 to 10 | ++ (≥150 and <350) | < 100 |
| COc1ncc(C2CCC2)cc1CN[C@H]1[C@H](C(C)(C)C)[C@@H](C(=O)O)N(C(=O)[C@@H]2CCCCO2)[C@H]1c1ccccc1C1CC1 [Example I-296] |  |  |  |  |  |  | 1 to 10 | 1 to 10 | +++ (≥350) | > 200 |
| COc1ccc(Br)cc1CN[C@H]1[C@H](C(C)(C)C)[C@@H](C(=O)O)N(C(=O)C2CCCCC2)[C@H]1c1ccccc1F [II-262] |  |  |  |  |  |  | 1 to 10 | 1 to 10 | +++ (≥350) | 100 to 200 |
| COc1ccc(C23CC(C2)C3)cc1CN[C@H]1[C@H](C(C)(C)C)[C@@H](C(=O)O)N(C(=O)[C@H]2CCCCO2)[C@H]1c1cccnc1N(C)C [Example 52, (2S,3S,4S,5S)-4-({[5-(bicyclo[1.1.1]pentan-1-yl)-2-methoxyphenyl]methyl}amino)-3-tert-butyl-5-[2-(dimethylamino)pyridin-3-yl]-1-[(2R)-oxane-2-carbonyl]pyrrolidine-2-carboxylic acid] |  | 1 to 10 |  | 1 to 10 | +++ (≥350) | 100 to 200 |  |  |  |  |
| COc1ccc(C(C)(C)C)cc1CN[C@H]1[C@H](C(C)(C)C)[C@@H](C(=O)O)N(C(=O)C(C)c2ccccc2)[C@H]1c1ccccc1 (stereo partly shown) [II-215] |  |  |  |  |  |  | 1 to 10 | < 1 | +++ (≥350) | > 200 |

Other lines, results leading:

| Emax [1] [%] | EC50 [2] [µM] | Maximum % activity (with co-corrector) [3] | EC50 [4] [µM] | Maximum % activity (with co-corrector) (with co-corrector (2 μM)) | Emax (without co-corrector) [%] | EC50 [5] [µM] | EC50 [6] [µM] | Maximum % activity (with co-corrector) [7] | Emax (CSE-HRP, without co-corrector) [%] | Structure (SMILES) |
| --- | --- | --- | --- | --- | --- | --- | --- | --- | --- | --- |
| < 100 | > 10 | ++ (≥150 and <350) | 1 to 10 |  |  |  |  |  |  | COCCn1cc(C(F)(F)F)cc(CN[C@H]2[C@H](C(C)(C)C)[C@@H](C(=O)O)N(C(=O)C3CCCCC3)[C@H]2c2ccccc2)c1=O (racemic) [III-65] |
| 100 to 200 | 1 to 10 |  | 1 to 10 | +++ (≥350) |  |  |  |  |  | COc1ccc(C23CC(C2)C3)cc1CN[C@H]1[C@H](C(C)(C)C)[C@@H](C(=O)O)N(C(=O)OC(C)C)[C@H]1c1cccnc1OC(F)F [III-218] |
| 100 to 200 | 1 to 10 | +++ (≥350) | 1 to 10 |  |  |  |  |  |  | COc1ncc(N2CCCC2)cc1CN[C@H]1[C@H](C(C)(C)C)[C@@H](C(=O)O)N(C(=O)OC(C)C)[C@H]1c1cccnc1N(C)C [II-577] |
| > 200 | 1 to 10 | +++ (≥350) | 1 to 10 |  |  |  |  |  |  | C=CCOC(=O)N1[C@H](C(=O)O)[C@@H](C(C)(C)C)[C@H](NCc2cc(C(C)(C)C)ccc2OC)[C@@H]1c1ccccc1 [II-391] |
| < 100 | > 10 |  | 1 to 10 | ++ (≥150 and <350) |  |  |  |  |  | CC(C)(C)[C@H]1[C@H](NCc2cc(Cl)c3c(c2)OCO3)[C@H](c2ccccc2)N(C(=O)C2CCCCC2)[C@@H]1C(=O)O [III-140] |
| > 200 | 1 to 10 | +++ (≥350) | 1 to 10 |  |  |  |  |  |  | COc1ncc(C(F)(F)F)cc1CN[C@H]1[C@H](C(C)(C)C)[C@@H](C(=O)O)N(C(=O)OC(C)C)[C@H]1c1cccnc1N(C)C [II-510] |
| < 100 | > 10 |  | 1 to 10 | ++ (≥150 and <350) |  |  |  |  |  | Cn1c(=O)c2c(N[C@H]3[C@H](C(C)(C)C)[C@@H](C(=O)O)N(C(=O)C4CCCCC4)[C@H]3c3ccccc3)nccc2n(C)c1=O [III-157] |
| 100 to 200 | 1 to 10 | +++ (≥350) | 1 to 10 |  |  |  |  |  |  | COc1ccc(OC(F)(F)F)cc1CN[C@H]1[C@H](C(C)(C)C)[C@@H](C(=O)O)N(C(=O)[C@H](C)c2ccccc2)[C@H]1c1cccnc1OC [II-542] |
| > 200 | 1 to 10 | +++ (≥350) | 1 to 10 |  |  |  |  |  |  | COc1ncc(-c2cccc(F)c2F)cc1CN[C@H]1[C@H](C(C)(C)C)[C@@H](C(=O)O)N(C(=O)C2CCCCC2)[C@H]1c1ccccc1 [II-346] |
|  |  |  |  |  |  | 1 to 10 | 1 to 10 | +++ (≥350) | < 100 | COc1ncc(Br)cc1CN[C@H]1[C@H](C(C)(C)C)[C@@H](C(=O)O)N(C(=O)C2CCCCC2)[C@H]1c1ccccc1F [II-263] |
| < 100 | 1 to 10 |  | 1 to 10 | ++ (≥150 and <350) |  |  |  |  |  | CC(C)(C)[C@H]1[C@H](NCc2cc3c(cc2Cl)OCO3)[C@H](c2ccccc2)N(C(=O)C2CCCCC2)[C@@H]1C(=O)O [III-142] |
| < 100 | 1 to 10 | +++ (≥350) | < 1 |  |  |  |  |  |  | COc1ncc(C(F)(F)F)cc1CN[C@H]1[C@H](C(C)(C)C)[C@@H](C(=O)O)N(C(=O)[C@H]2CC[C@@H](c3ccccc3)O2)[C@H]1c1ccccc1 (relative stereo) [II-426] |
| < 100 | 1 to 10 | ++ (≥150 and <350) | 1 to 10 |  |  |  |  |  |  | COc1ccc(C(F)(F)F)cc1CN[C@@H]1[C@H](C(C)(C)C)[C@@H](C(=O)O)N(C(=O)OC(C)C)[C@H]1c1ccccc1 [II-556] |
| > 200 | 1 to 10 |  | < 1 | +++ (≥350) |  |  |  |  |  | COc1ccc(C(C)(C)C)cc1CN[C@H]1[C@H](C(C)(C)C)[C@@H](C(=O)O)N(C(=O)C2CCCC(C(F)(F)F)C2)[C@H]1c1cccnc1N(C)C (stereo partly shown) [III-206] |
